Our source for the inhibition values is patent US20090093469A1, “Phenylaminopropanol Derivatives and Methods of Their Use” (WYETH, priority 2004, published 2009).

Counter-ions that a name gives are not always drawn.

T1 sequence (P23975 whole entry): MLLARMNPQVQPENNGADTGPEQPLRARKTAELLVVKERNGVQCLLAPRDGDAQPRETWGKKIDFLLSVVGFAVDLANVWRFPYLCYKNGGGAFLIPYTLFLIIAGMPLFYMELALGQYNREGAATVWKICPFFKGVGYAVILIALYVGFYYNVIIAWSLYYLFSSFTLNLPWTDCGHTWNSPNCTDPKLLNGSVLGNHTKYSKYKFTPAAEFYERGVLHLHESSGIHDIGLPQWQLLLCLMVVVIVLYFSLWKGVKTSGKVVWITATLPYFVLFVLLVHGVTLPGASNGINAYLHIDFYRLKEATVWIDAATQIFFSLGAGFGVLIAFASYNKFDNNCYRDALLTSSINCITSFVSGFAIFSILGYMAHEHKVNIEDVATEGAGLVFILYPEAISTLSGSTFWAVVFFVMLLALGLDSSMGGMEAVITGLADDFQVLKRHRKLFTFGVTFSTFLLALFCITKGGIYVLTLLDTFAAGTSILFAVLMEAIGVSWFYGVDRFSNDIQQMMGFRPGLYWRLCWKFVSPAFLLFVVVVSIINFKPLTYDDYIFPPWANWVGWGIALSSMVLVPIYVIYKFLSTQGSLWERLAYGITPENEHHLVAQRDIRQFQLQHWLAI

This assay concerns the target T1, hNET (Homo sapiens, UniProt P23975).
T1 construct: expressed in transfected cells
Put plainly: Norepinephrine (NE) uptake assay in MDCK-Net6 cells stably transfected with human hNET. It is filed as cell-based. The note with it: MDCK-Net6, read-out: % Inhibition @ 1 μM (hNET).
The inhibition is the drop in the measured response relative to a control, in per cent. With `CNC[C@@H](O)[C@H](c1ccccc1)n1c(=O)n(C2CCC2)c2ccccc21` [Example 197, 1-cyclobutyl-3-[(1S,2R)-2-hydroxy-3-(methylamino)-1-phenylpropyl]-1,3-dihydro-2H-benzimidazol-2-one hydrochloride], the inhibition at 1 µM is 97%.

With `CCCn1c(=O)n([C@@H](c2ccccc2)[C@H](O)CNC)c2cc(F)ccc21` [Example 198, 5-fluoro-3-[(1S,2R)-2-hydroxy-3-(methylamino)-1-phenylpropyl]-1-propyl-1,3-dihydro-2H-benzimidazol-2-one hydrochloride], the inhibition at 1 µM came out at 97.7%.

On to `CCn1c(=O)n([C@@H](c2cccc(F)c2)[C@H](O)CNC)c2ccccc21` [Example 199, 1-Ethyl-3-[1-(3-fluoro-phenyl)-2-hydroxy-3-methylamino-propyl]-1,3-dihydro-benzimidazol-2-one hydrochloride], for which the inhibition at 1 µM came to 99.1%.

Take `CCn1c(=O)n([C@@H](c2ccccc2)[C@H](O)CNC)c2ccccc21` [Example 200, 1-Ethyl-3-[(1S,2R)-2-hydroxy-3-(methylamino)-1-phenylpropyl]-1,3-dihydro-2H-benzimidazol-2-one hydrochloride]: the inhibition at 1 µM is 97.9%.

For `CNC[C@@H](O)[C@H](c1ccccc1)n1c(=O)n(C(C)C)c2cccc(F)c21` [Example 201, 4-Fluoro-3-(2-hydroxy-3-methylamino-1-phenyl-propyl)-1-isopropyl-1,3-dihydro-benzimidazol-2-one hydrochloride], the inhibition at 1 µM came out at 98.8%.

As for `CNC[C@@H](O)[C@H](c1ccccc1)n1c(=O)n(C2CCCC2)c2ccccc21` [Example 202, 1-Cyclopentyl-3-[(1S,2R)-2-hydroxy-3-(methylamino)-1-phenylpropyl]-1,3-dihydro-2H-benzimidazol-2-one hydrochloride], the inhibition at 1 µM was 92.7%.

As to `CNC[C@@H](O)[C@H](c1ccccc1)n1c(=O)n(C(C)C)c2ccccc21` [Example 203, 1-[(1S,2R)-2-hydroxy-3-(methylamino)-1-phenylpropyl]-3-isopropyl-1,3-dihydro-2H-benzimidazol-2-one hydrochloride], the inhibition at 1 µM is 98.9%.

On to `CCNC[C@@H](O)[C@H](c1ccccc1)n1c(=O)n(C(C)C)c2ccc(F)cc21` [Example 204, 3-[(1S,2R)-3-(ethylamino)-2-hydroxy-1-phenylpropyl]-5-fluoro-1-isopropyl-1,3-dihydro-2H-benzimidazol-2-one hydrochloride], for which the inhibition at 1 µM came to 47.4%.

`CNC[C@@H](O)[C@H](c1ccccc1)n1c(=O)n(C)c2ccccc21` [Example 205, 1-[(1S,2R)-2-hydroxy-3-(methylamino)-1-phenylpropyl]-3-methyl-1,3-dihydro-2H-benzimidazol-2-one hydrochloride]: the inhibition at 1 µM is 82.9%.

On to `CCn1c(=O)n([C@@H](c2ccccc2)[C@H](O)CNC)c2cc(F)ccc21` [Example 206, 1-Ethyl-5-fluoro-3-[(1S,2R)-2-hydroxy-3-(methylamino)-1-phenylpropyl]-1,3-dihydro-2H-benzimidazol-2-one hydrochloride], for which the inhibition at 1 µM came to 96.9%.

In the case of `CCn1c(=O)n([C@@H](c2ccccc2)[C@H](O)CNC)c2c(F)cccc21` [Example 207, 1-Ethyl-4-fluoro-3-[(1S,2R)-2-hydroxy-3-(methylamino)-1-phenylpropyl]-1,3-dihydro-2H-benzimidazol-2-one hydrochloride], the inhibition at 1 µM is 98.3%.

With `CNC[C@@H](O)[C@H](c1cccc(F)c1)n1c(=O)n(C(C)C)c2cccc(F)c21` [Example 208, 4-fluoro-3-[(1S,2R)-1-(3-fluorophenyl)-2-hydroxy-3-(methylamino)-propyl]-1-isopropyl-1,3-dihydro-2H-benzimidazol-2-one hydrochloride], the inhibition at 1 µM is 99.8%.
